Source: article PMC12543283, “TastepepAI: An artificial intelligence platform for taste peptide de novo design” (PLOS Computational Biology, 2025)
Ends that are not written are not given here.

What was measured:
[1] = Electronic tongue analysis (Taste-Sensing System SA 402B); set-up: unit not given here; details: reference solution 30 mM KCl + 0.3 mM tartaric acid as baseline, first measurement excluded; for Umami: sensor AAE; for Umami / Bitter / Sweet: detection threshold 0, room temperature; for Umami / Bitter / Sour / Salty: four replicates; for Sour: detection threshold -13, room temperature; for Salty: detection threshold -6, room temperature; for Sweet: measured five times
Experimental: Taste characteristics were analyzed using the electronic tongue system E-tongue (Taste-Sensing System SA 402B, Intelligent Sensor Technology Co. Ltd., Japan). The system was equipped with five specific sensor probes for detecting sourness (CA0), saltiness (CT0), bitterness (C00), sweetness (GL1), and umami (AAE). Samples were tested at concentrations of 0.1 mg/mL and 1.0 mg/mL. Prior to experiments, sensors were activated by immersion in a reference solution (30 mM KCl and 0.3 mM tartaric acid) for 24 h. A 30 min self-diagnostic procedure was performed before each measurement to ensure data accuracy. The reference solution served both as a cleaning solution and standard solution for taste signal calibration. According to the manufacturer’s instructions, using the reference solution as baseline, the detection thresholds were set at −13 for sourness, −6 for saltiness, and 0 for other taste modalities. Two cleaning solutions were employed for electrode maintenance: (1) 30% ethanol solution containing 100 mM HCl for negative charge reference electrodes, and (2) 30% ethanol solution containing 100 mM KCl and 10 mM KOH for positive charge reference electrodes. All taste measurements were performed at room temperature with four replicates, except for sweetness which was measured five times. The first measurement data were excluded from analysis.

[2] = tested on: human bronchial epithelial cells (BEAS-2B)
[3] = tested on: human embryonic kidney cells (HEK293T)
[4] = tested on: human pancreatic ductal epithelial cells (HPNE)
Experimental: The cytotoxicity of 73 synthetic peptides was evaluated using four human cell lines: human pancreatic ductal epithelial cells (HPNE), human embryonic kidney cells (HEK293T), human umbilical vein endothelial cells (HUVEC), and human bronchial epithelial cells (BEAS-2B). When cell density reached 70% confluence, the complete culture medium was replaced with serum-free maintenance medium, and peptides were added at a final concentration of 100 μM for 36 h. Control groups received only serum-free maintenance medium without peptides. Cell proliferation was assessed using the CCK-8 assay kit (Solarbio, CA1210) according to the manufacturer’s instructions.

[5] = tested on: human umbilical vein endothelial cells (HUVEC)

| Substance | Umami ([1]; peptide 0.1 mg/mL) | Umami ([1]; peptide 1 mg/mL) | Bitter ([1]; sensor C00, peptide 0.1 mg/mL) | Bitter ([1]; sensor C00, peptide 1 mg/mL) | Sour ([1]; sensor CA0, peptide 0.1 mg/mL) | Sour ([1]; sensor CA0, peptide 1 mg/mL) | Salty ([1]; sensor CT0, peptide 0.1 mg/mL) | Salty ([1]; sensor CT0, peptide 1 mg/mL) | Sweet ([1]; sensor GL1, peptide 0.1 mg/mL) | Sweet ([1]; sensor GL1, peptide 1 mg/mL) | Average cell viability, BEAS-2B [2] | Cell viability, BEAS-2B, Data1 [2] | Cell viability, BEAS-2B, Data2 [2] | Cell viability, BEAS-2B, Data3 [2] | Average cell viability, HEK293T [3] | Cell viability, HEK293T, Data1 [3] | Cell viability, HEK293T, Data2 [3] | Cell viability, HEK293T, Data3 [3] | Average cell viability, HPNE [4] | Cell viability, HPNE, Data1 [4] | also measured |
| --- | --- | --- | --- | --- | --- | --- | --- | --- | --- | --- | --- | --- | --- | --- | --- | --- | --- | --- | --- | --- | --- |
| EEVPITD [TaPep46] | 1.60 | -4.41 | 7.55 | 4.18 | -3.21 | 10.78 | -21.33 | 4.55 | 6.32 | -3.59 | 111.37 | 117.25 | 103.29 | 113.56 | 100.85 | 99.94 | 100.60 | 102.02 | 104.39 | 107.62 | Cell viability, HPNE, Data2 [4]: 107.82; Cell viability, HPNE, Data3 [4]: 97.74; Average cell viability, HUVEC [5]: 101.12; Cell viability, HUVEC, Data1 [5]: 105.61; Cell viability, HUVEC, Data2 [5]: 97.55; Cell viability, HUVEC, Data3 [5]: 100.19 |
| EFPEQN [TaPep17] | 1.17 | -5.94 | 7.25 | 3.52 | -2.22 | 14.54 | -21.65 | -0.53 | 5.23 | -5.15 | 109.94 | 112.36 | 107.58 | 109.87 | 98.68 | 94.45 | 102.97 | 98.61 | 92.31 | 86.66 | Cell viability, HPNE, Data2 [4]: 92.25; Cell viability, HPNE, Data3 [4]: 98.04; Average cell viability, HUVEC [5]: 96.70; Cell viability, HUVEC, Data1 [5]: 94.76; Cell viability, HUVEC, Data2 [5]: 94.12; Cell viability, HUVEC, Data3 [5]: 101.22 |
| EKGVQ [TaPep64] | 1.91 | -4.02 | 7.39 | 3.04 | -4.25 | 9.90 | -21.79 | 10.50 | 4.85 | -4.54 | 103.99 | 103.09 | 103.59 | 105.28 | 103.19 | 103.53 | 102.87 | 103.15 | 98.34 | 89.85 | Cell viability, HPNE, Data2 [4]: 95.04; Cell viability, HPNE, Data3 [4]: 110.12; Average cell viability, HUVEC [5]: 104.98; Cell viability, HUVEC, Data1 [5]: 101.54; Cell viability, HUVEC, Data2 [5]: 110.56; Cell viability, HUVEC, Data3 [5]: 102.82 |
| EPKVLV [TaPep54] | 3.06 | -3.47 | 7.63 | 2.50 | -7.11 | 8.51 | -20.20 | 10.59 | 9.28 | -6.29 | 102.43 | 95.01 | 108.18 | 104.09 | 102.24 | 103.15 | 102.49 | 101.07 | 100.23 | 115.91 | Cell viability, HPNE, Data2 [4]: 95.44; Cell viability, HPNE, Data3 [4]: 89.35; Average cell viability, HUVEC [5]: 110.64; Cell viability, HUVEC, Data1 [5]: 113.84; Cell viability, HUVEC, Data2 [5]: 114.72; Cell viability, HUVEC, Data3 [5]: 103.38 |
| EQGEQN [TaPep15] | 3.17 | -3.63 | 6.27 | 4.11 | -7.15 | 8.97 | -23.91 | 2.97 | 9.72 | -3.92 | 103.09 | 105.68 | 95.51 | 108.08 | 92.65 | 98.80 | 86.59 | 92.56 | 101.30 | 84.06 | Cell viability, HPNE, Data2 [4]: 112.61; Cell viability, HPNE, Data3 [4]: 107.22; Average cell viability, HUVEC [5]: 100.56; Cell viability, HUVEC, Data1 [5]: 103.30; Cell viability, HUVEC, Data2 [5]: 104.26; Cell viability, HUVEC, Data3 [5]: 94.12 |
| EQPLQA [TaPep21] | 0.99 | -5.14 | 7.83 | 3.66 | -1.59 | 12.04 | -19.46 | 7.62 | 5.53 | -10.15 | 98.84 | 92.62 | 108.57 | 95.31 | 97.76 | 94.35 | 95.58 | 103.34 | 98.70 | 92.25 | Cell viability, HPNE, Data2 [4]: 87.35; Cell viability, HPNE, Data3 [4]: 116.51; Average cell viability, HUVEC [5]: 102.16; Cell viability, HUVEC, Data1 [5]: 96.59; Cell viability, HUVEC, Data2 [5]: 98.43; Cell viability, HUVEC, Data3 [5]: 111.44 |
| ESKDQ [TaPep55] | 1.27 | -4.53 | 7.76 | 2.75 | -2.34 | 11.12 | -19.80 | 11.30 | 5.21 | -7.81 | 109.14 | 112.96 | 98.40 | 116.05 | 98.14 | 94.73 | 101.07 | 98.61 | 94.61 | 105.92 | Cell viability, HPNE, Data2 [4]: 82.36; Cell viability, HPNE, Data3 [4]: 95.54; Average cell viability, HUVEC [5]: 102.82; Cell viability, HUVEC, Data1 [5]: 107.29; Cell viability, HUVEC, Data2 [5]: 96.11; Cell viability, HUVEC, Data3 [5]: 105.06 |
| EVGMQE [TaPep56] | 2.28 | -4.04 | 7.18 | 3.33 | -4.96 | 9.59 | -21.19 | 6.57 | 7.84 | -7.49 | 108.94 | 97.91 | 109.67 | 119.24 | 101.26 | 104.86 | 101.55 | 97.38 | 104.53 | 109.42 | Cell viability, HPNE, Data2 [4]: 91.95; Cell viability, HPNE, Data3 [4]: 112.21; Average cell viability, HUVEC [5]: 106.36; Cell viability, HUVEC, Data1 [5]: 96.04; Cell viability, HUVEC, Data2 [5]: 108.89; Cell viability, HUVEC, Data3 [5]: 114.16 |
